Legend:
Type in all cases: cell-based
HCC38 = test: Cell growth inhibition (CellTiter-Glo), breast cancer line HCC38; settings: 4 days
Method: (§1) Cell growth inhibitory activity of representative BET bromodomain degraders in representative breast cancer cell lines was determined using the CellTiter-Glo® Luminescent Cell Viability Assay. SUM-52 and SUM-159 cell lines were established at the University of Michigan Comprehensive Cancer Center. All the other breast cancer cell lines were obtained from the ATCC (Manassas, Va.). Cells were seeded in 384-well cell culture plates at a density of 1,000-2,500 cells/well with serially diluted compounds and incubated at 37° C. in an atmosphere of 95% air and 5% CO2 for 4 days. Cell viability was determined using the CellTiter-Glo® Luminescent Cell Viability Assay Kit (Promega, Madison, Wis.) according to the manufacture's instruction. Briefly, a volume of CellTiter-Glo® Reagent equal to the volume of cell culture medium was added to each well, and then the plates were incubated at room temperature for 20-60 minutes. The luminescent signal was measured using a Tecan Infinite M1000 multimode microplate reader (Tecan, Morrisville, N.C.). The half maximal inhibitory concentration (IC50) was calculated using the GraphPad Prism 5 software (GraphPad Software, La Jolla, Calif.). “Thd” is thalidomide.

HCC1428 = test: Cell growth inhibition (CellTiter-Glo), breast cancer line HCC1428; settings: 4 days
Method: as §1

H647 = test: Cell growth inhibition (CellTiter-Glo), NSCLC line H647; settings: H647 non-small cell lung cancer cell line, 4 days
Method: (§2) Cell growth inhibitory activity of representative BET bromodomain degraders in representative non-small cell lung cancer cell lines was determined using the CellTiter-Glo® Luminescent Cell Viability Assay. Cells were seeded in 384-well white opaque cell culture plates at a density of 2,000 cells/well with serially diluted compounds and incubated at 37° C. in an atmosphere of 95% air and 5% CO2 for 4 days. Cell viability was determined using the CellTiter-Glo® Luminescent Cell Viability Assay Kit (Promega, Madison, Wis.) according to the manufacture's instruction. Briefly, a volume of CellTiter-Glo® Reagent equal to the volume of cell culture medium was added to each well, and then the plates were incubated at room temperature for 10-20 minutes. The luminescent signal was measured using a Tecan Infinite M1000 multimode microplate reader (Tecan, Morrisville, N.C.). The half maximal inhibitory concentration (IC50) was calculated using the GraphPad Prism 5 software (GraphPad Software, La Jolla, Calif.). Cpd. A is a BET bromodomain inhibitor, see U.S. Appl.

H2444 = test: Cell growth inhibition (CellTiter-Glo), NSCLC line H2444; settings: H2444 non-small cell lung cancer cell line, 4 days
Method: as §2

H1869 = test: Cell growth inhibition (CellTiter-Glo), NSCLC line H1869; settings: H1869 non-small cell lung cancer cell line, 4 days
Method: as §2

SKCO-1 = test: Cell growth inhibition (CellTiter-Glo), colon cancer line SKCO-1; settings: SKCO-1 colon cancer cell line
Method: as §2, with “Appl. No. 62/121,637, having the following structure:” for “Appl.”
Cell growth inhibitory activity of representative BET bromodomain degraders in representative colon cancer cell lines, see Table 7, was determined as described in Example 17.

HBL-100 = test: Cell growth inhibition (CellTiter-Glo), breast cancer line HBL-100; settings: HBL-100 breast cancer cell line, 4 days
Method: as §1

CALU-1 = test: Cell growth inhibition (CellTiter-Glo), NSCLC line CALU-1; settings: CALU-1 non-small cell lung cancer cell line, 4 days
Method: as §2

HCC70 = test: Cell growth inhibition (CellTiter-Glo), breast cancer line HCC70; settings: 4 days
Method: as §1

MOLM-13 = test: Cell growth inhibition (CellTiter-Glo), MOLM-13; settings: Homo sapiens, MOLM-13, 96 h, MOLM-13 cells, 4 days
Method: Cell growth inhibitory activity of representative BET bromodomain degraders was determined using CellTiter-Glo® Luminescent Cell Viability Assay. Cells were seeded in 384-well white opaque cell culture plates at a density of 2,000 cells/well with serially diluted compounds and incubated at 37° C. in an atmosphere of 95% air and 5% CO2 for 4 days. Cell viability was determined using the CellTiter-Glo® Luminescent Cell Viability Assay Kit (Promega, Madison, Wis.) according to the manufacture's instruction. Briefly, a volume of CellTiter-Glo® Reagent equal to the volume of cell culture medium was added to each well, and then the plates were incubated at room temperature for 10-20 minutes. The luminescent signal was measured using a Tecan Infinite M1000 multimode microplate reader (Tecan, Morrisville, N.C.). The half maximal inhibitory concentration (IC50) was calculated using the GraphPad Prism 5 software (GraphPad Software, La Jolla, Calif.).

MV4; 11 = test: Cell growth inhibition (CellTiter-Glo), leukemia line MV4; 11; settings: 11 leukemia cell line
Method: as §2, with “Appl. No. 62/121,637, having the following structure: Cell growth inhibitory activity of representative BET bromodomain degraders in representative leukemia cell lines, see Table 8, was determined as described in Example 17.” for “Appl.”

Row | SMILES | IC50 (HCC38; Homo sapiens, 96 h) [nM] | IC50 (HCC1428; Homo sapiens, 96 h) [nM] | IC50 (H647; Homo sapiens, NCI-H647, 96 h) [nM] | IC50 (H2444; Homo sapiens, NCI-H2444, 96 h) [nM] | IC50 (H1869; 96 h) [nM] | IC50 (SKCO-1; Homo sapiens, SK-CO-1) [nM] | IC50 (HBL-100; Homo sapiens, 96 h) [nM] | IC50 (CALU-1; Homo sapiens, 96 h) [nM] | IC50 (HCC70; Homo sapiens, 96 h) [nM] | IC50 (MOLM-13) [nM] | further results
1 | CCn1nc(C2CC2)cc1Nc1nc(COC)nc2[nH]c3cc(-c4c(C)noc4C)c(OC)cc3c12 [Cpd. A, reference compound] | 60 | 50 | 80 | 2720 | 60 | 1080 ± 240 | 100 | 2520 | 580 |  | 
2 | CCn1nc(C2CC2)cc1Nc1nc(C(=O)NCCCOCCOCCOCCCNc2cccc3c2C(=O)N(C2CCC(=O)NC2=O)C3=O)nc2[nH]c3cc(-c4c(C)noc4C)c(OC)cc3c12 (stereo not drawn) [Cpd. No. 4] | 4 | 13 | 598 | 4 | 9 | 8 ± 4 | 4 | 2 | 35 | 0.7 | IC50 (MV4; 11; Homo sapiens): 160 nM
3 | CCn1nc(C2CC2)cc1Nc1nc(C(=O)NCCCCNc2cccc3c2C(=O)N(C2CCC(=O)NC2=O)C3=O)nc2[nH]c3cc(-c4c(C)noc4C)c(OC)cc3c12 (stereo not drawn) [Cpd. No. 9] |  |  | 789 | 28 | 93 | 23 ± 10 |  | 9 |  | 1.2 | 
4 | Cc1sc2c(c1C)C(c1ccc(Cl)cc1)=N[C@@H](CC(=O)NCCCCNC(=O)COc1cccc3c1C(=O)N(C1CCC(=O)NC1=O)C3=O)c1nnc(C)n1-2 (stereo partly drawn) [dBET1, reference compound] |  |  |  |  |  |  |  |  |  |  | IC50 (HCC38): 3700 nM; IC50 (HCC1428): > 5000 nM; IC50 (H647): > 5000 nM; IC50 (H2444): 3000 nM; IC50 (H1869): > 5000 nM; IC50 (SKCO-1): > 5000 nM; IC50 (MV4; 11): 33000 nM; IC50 (HBL-100): > 5000 nM; IC50 (CALU-1): 3100 nM; IC50 (HCC70): > 5000 nM

— US10633386B2, “BET protein degraders” (THE REGENTS OF THE UNIVERSITY OF MICHIGAN, priority 2016, dated 2020)
